Results published in paper PMC3260207, “Site-Directed Mutations and the Polymorphic Variant Ala160Thr in the Human Thromboxane Receptor Uncover a Structural Role for Transmembrane Helix 4” (PLoS ONE, 2012).
Where a chain is given by its changes, count along the chain named.

How the values were obtained:
[1] = biological target: T1, TP A160V/F115A double mutant (Homo sapiens, UniProt P21731, A160V/F115A); assay: Saturation radioligand binding with [3H] SQ 29,548, membranes; set-up: expressed in transfected cells; host or cells: COS-1 cells (membranes), transient, pMT4; details: picomoles of TP per milligram of total membrane protein, mean ± S.E
T1 sequence (P21731 1-343 F115A/A160V): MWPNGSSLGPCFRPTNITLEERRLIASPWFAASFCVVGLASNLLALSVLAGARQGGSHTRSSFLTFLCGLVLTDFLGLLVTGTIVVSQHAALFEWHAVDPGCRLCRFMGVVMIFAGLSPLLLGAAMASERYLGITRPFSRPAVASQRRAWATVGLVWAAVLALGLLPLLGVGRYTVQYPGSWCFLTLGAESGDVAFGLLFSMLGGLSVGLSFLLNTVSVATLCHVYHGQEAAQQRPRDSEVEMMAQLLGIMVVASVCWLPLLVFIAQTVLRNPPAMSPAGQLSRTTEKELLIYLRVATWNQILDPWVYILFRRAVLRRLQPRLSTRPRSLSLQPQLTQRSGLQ
Method: (§1) Amino acid substitutions were introduced into the synthetic TPα gene carried by the expression vector pMT4 as described previously, [29]. DNA sequences of all the mutated genes were verified by automated DNA sequencing. To minimize variations in transfection efficiency, the total amount transfected DNA was kept constant in all cases at 1 µg of DNA per 7×10^5 cells. The wild type TP or mutant genes were expressed in COS-1 cells using a DEAE-dextran based transient transfection method, [29], and in HEK293T cells using lipofectamine 2000 (Invitrogen). Except unless specified, the membranes prepared from COS-1 cells were used for radioligand binding assays and immunoblots. […] The protein concentration in the resuspended membrane pellet was determined using a modified DC protein assay kit from Bio-Rad Laboratories (Hercules, CA).
(§2) These were carried out in Buffer C for 60 min at room temperature, using 2 to 20 µg of membrane protein and different concentrations of [^3H] […] Filter-bound radioactivity was measured using a liquid scintillation counter. Equilibrium dissociation constants (Kd) were determined from saturation isotherms using PRISM software version 5.0 (GraphPad Software Inc, San Diego, CA, USA). The Ki values were calculated from the IC50, using the equation of Cheng and Prusoff by PRISM software version 5.0.

[2] = biological target: T2, TP F115A mutant (Homo sapiens, UniProt P21731, F115A); assay: as above; set-up: expressed in transfected cells; host or cells: COS-1 cells (membranes), transient, pMT4; details: picomoles of TP per milligram of total membrane protein, mean ± S.E
T2 sequence (P21731 1-343 F115A): T1 sequence (P21731 1-343 F115A/A160V) with V160A
Method: as §1, §2

[3] = biological target: T3, TP G164V/V110A double mutant (Homo sapiens, UniProt P21731, G164V/V110A); assay: Intracellular calcium mobilization (Fluo-4NW) in transfected HEK293T cells; format: cell-based; details: response could be restored upon stimulation with elevated levels of U46619
T3 construct: expressed in transfected cells; transient, pMT4
T3 sequence (P21731 1-343 V110A/G164V): T1 sequence (P21731 1-343 F115A/A160V) with V110A, A115F, V160A, G164V
Method: Amino acid substitutions were introduced into the synthetic TPα gene carried by the expression vector pMT4 as described previously, [29]. DNA sequences of all the mutated genes were verified by automated DNA sequencing. To minimize variations in transfection efficiency, the total amount transfected DNA was kept constant in all cases at 1 µg of DNA per 7×10^5 cells. The wild type TP or mutant genes were expressed in COS-1 cells using a DEAE-dextran based transient transfection method, [29], and in HEK293T cells using lipofectamine 2000 (Invitrogen). Except unless specified, the membranes prepared from COS-1 cells were used for radioligand binding assays and immunoblots. For intracellular calcium determination assays and immunofluorescence imaging, HEK293T cells were used. For transient transfections of HEK293T cells using the plasmid pMT4, lipofectamine 2000 (Invitrogen) mediated transfection was used as described by the manufacturer. Membranes were prepared using Buffers A and B and as described previously, [29]. The protein concentration in the resuspended membrane pellet was determined using a modified DC protein assay kit from Bio-Rad Laboratories (Hercules, CA).
Changes in intracellular calcium were measured by using the fluorescent calcium sensitive dye Fluo-4NW (Invitrogen). After 6–8 hours of transient transfection of HEK293T cells using lipofectamine 2000, 100,000 viable cells were plated into each well of a 96-well tissue culture treated BD-falcon optilux plates. Cells mock transfected with vector pMT4 alone were used as a negative control. Following 24 hours of incubation at 37°C, the media was removed and cells were incubated with the dye Fluo-4NW (Invitrogen) containing 77 µg/ml of probenecid for 1 hour, as recommended by the manufacturer. […] Dose–response curves were generated and EC50 values calculated by nonlinear regression analysis using PRISM software version 5.0 (GraphPad Software Inc, San Diego, CA) after subtracting the responses of mock-transfected cells stimulated with same concentrations of agonists.

[4] = biological target: T1, TP A160V/F115A double mutant; assay: as above; format: cell-based; set-up: expressed in transfected cells; transient, pMT4; details: read-out: EC50 of agonist U46619 (calcium mobilized), transiently transfected HEK293T cells, mean ± S.E
Method: as §1, with “immunoblots. For intracellular calcium determination assays and immunofluorescence imaging, HEK293T cells were used.” for “immunoblots.”
(§3) Changes in intracellular calcium were measured by using the fluorescent calcium sensitive dye Fluo-4NW (Invitrogen). […] Dose–response curves were generated and EC50 values calculated by nonlinear regression analysis using PRISM software version 5.0 (GraphPad Software Inc, San Diego, CA) after subtracting the responses of mock-transfected cells stimulated with same concentrations of agonists.

[5] = biological target: T2, TP F115A mutant; assay: as above; format: cell-based; set-up: expressed in transfected cells; transient, pMT4; details: read-out: EC50 of agonist U46619 (calcium mobilized), transiently transfected HEK293T cells, mean ± S.E
Method: as §1, with “immunoblots. For intracellular calcium determination assays and immunofluorescence imaging, HEK293T cells were used.” for “immunoblots.”
as §3

| Bmax, binding maximum of the ligand SQ 29,548 for the receptor [1] [pmol/mg] | Bmax, binding maximum of the ligand SQ 29,548 for the receptor [2] [pmol/mg] | Calcium response to U46619 [3] | EC50 [4] [nM] | EC50 [5] [nM] | SMILES |
| --- | --- | --- | --- | --- | --- |
| 2.1 ± 0.4 | 1.8 ± 0.2 |  |  |  | O=C(O)CCC/C=C\C[C@@H]1[C@H](CNNC(=O)Nc2ccccc2)[C@H]2CC[C@@H]1O2 [SQ 29,548] |
|  |  | reduced calcium response | 43.5 ± 1.5 | 2 ± 0.3 | CCCCC[C@H](O)/C=C/[C@@H]1[C@@H](C/C=C\CCCC(=O)O)[C@H]2CO[C@@H]1C2 [U46619] |
